Reference: ChEMBL document CHEMBL1154221, “Farinomalein, a maleimide-bearing compound from the entomopathogenic fungus Paecilomyces farinosus” (2009)

Test system: Phytophthora sojae
Assay: Antioomycete activity against Phytophthora sojae P6497 after 48 to 96 hrs by disc diffusion method
Assay type: functional

Row | Structure (SMILES) | MIC
1 | C[C@@H]1[C@H](O)[C@@H](C)/C=C/C=C/C=C/C=C/C=C/C=C/C=C/[C@H](O[C@@H]2O[C@H](C)[C@@H](O)[C@H](N)[C@@H]2O)C[C@@H]2O[C@](O)(C[C@@H](O)C[C@@H](O)[C@H](O)CC[C@@H](O)C[C@@H](O)CC(=O)O[C@H]1C)C[C@H](O)[C@H]2C(=O)O [AMPHOTERICIN B] | 10 µg
2 | CC(C)C1=CC(=O)N(CCC(=O)O)C1=O [FARINOMALEIN] | 5 µg
